According to US20060281700A1, “SYNERGISTIC MODULATION OF FLT3 KINASE USING AMINOPYRIMIDINES KINASE MODULATORS” (priority 2005, published 2006):

Tested on: MV4-11 cells
Assay: Inhibition of MV4-11 cell proliferation (CellTiterGlo, 72 hours)
Type: cell-based
Settings: Homo sapiens; 72 hours growth; uncertainty ±20%
Procedure: Inhibition Of MV4-11 and Baf3 Cell Proliferation
To assess the cellular potency of the FLT3 inhibitors of Formula I′, FLT3 specific growth inhibition was measured in the leukemic cell line MV4-11 (ATCC Number: CRL-9591). […] MV4-11 cells cannot grow and survive without active FLT3ITD.
To measure proliferation inhibition by test compounds, the luciferase based CellTiterGlo reagent (Promega), which quantifies total cell number based on total cellular ATP concentration, was used. Cells are plated at 10,000 cells per well in 100 ul of in RPMI media containing penn/strep, 10% FBS and 1 ng/ml GM-CSF or 1 ng/ml IL-3 for MV4-11 and Baf3 cells respectively.
Compound dilutions or 0.1% DMSO (vehicle control) are added to cells and the cells are allowed to grow for 72 hours at standard cell growth conditions (37° C., 5% CO2). For activity measurements in MV4-11 cells grown in 50% plasma, cells were plated at 10,000 cells per well in a 1:1 mixture of growth media and human plasma (final volume of 100 μL). To measure total cell growth an equal volume of CellTiterGlo reagent was added to each well, according to the manufacturer's instructions, and luminescence was quantified. Total cell growth was quantified as the difference in luminescent counts (relative light units, RLU) of cell number at Day 0 compared to total cell number at Day 3 (72 hours of growth and/or compound treatment). One hundred percent inhibition of growth is defined as an RLU equivalent to the Day 0 reading. Zero percent inhibition was defined as the RLU signal for the DMSO vehicle control at Day 3 of growth. All data points are an average of triplicate samples. […] Inhibition and IC50 data analysis was done with GraphPad Prism using a non-linear regression fit with a multiparamater, sigmoidal dose-response (variable slope) equation.
MV4-11 cells express the FLT3 internal tandem duplication mutation, and thus are entirely dependent upon FLT3 activity for growth. […] In contrast, the Baf3 cell proliferation is driven by the cytokine IL-3 and thus are used as a non-specific toxicity control for test compounds.

SMILES	IC50
CO/N=C/c1c(N)ncnc1N1CCC(OC(=O)Nc2ccc(OC(C)C)cc2)CC1 [Number 1, (4-Isopropoxy-phenyl)-carbamic acid 1-[6-amino-5-(methoxyimino-methyl)-pyrimidin-4-yl]-piperidin-4-yl ester]	740 nM
CCO/N=C/c1c(N)ncnc1N1CCC(OC(=O)Nc2ccc(OC(C)C)cc2)CC1 [Number 2, (4-Isopropoxy-phenyl)-carbamic acid 1-[6-amino-5-(ethoxyimino-methyl)-pyrimidin-4-yl]-piperidin-4-yl ester]	135 nM
CC(C)Oc1ccc(NC(=O)OC2CCN(c3ncnc(N)c3/C=N/OCCCN(C)C)CC2)cc1 [Number 4, (4-Isopropoxy-phenyl)-carbamic acid 1-{6-amino-5-[(3-dimethylamino-propoxyimino)-methyl]-pyrimidin-4-yl}-piperidin-4-yl ester]	1400 nM
CO/N=C/c1c(N)ncnc1N1CCC(OC(=O)Nc2ccc(C(C)C)cc2)CC1 [Number 5, (4-Isopropyl-phenyl)-carbamic acid 1-[6-amino-5-(methoxyimino-methyl)-pyrimidin-4-yl]-piperidin-4-yl ester]	11 nM
CO/N=C/c1c(N)ncnc1N1CCC(CC(=O)Nc2ccc(C(C)C)cc2)C1 (stereo not shown) [Number 6, 2-{1-[6-Amino-5-(methoxyimino-methyl)-pyrimidin-4-yl]-pyrrolidin-3-yl}-N-(4-isopropyl-phenyl)-acetamide]	31 nM
CO/N=C/c1c(N)ncnc1N1CCC(CC(=O)Nc2ccc(C(C)C)cc2)CC1 [Number 7, 2-{1-[6-Amino-5-(methoxyimino-methyl)-pyrimidin-4-yl]-piperidin-4-yl}-N-(4-isopropyl-phenyl)-acetamide]	208 nM
CO/N=C/c1c(N)ncnc1N1CCC(NC(=O)Nc2ccc(OC(C)C)cc2)C1 (stereo not shown) [Number 8, 1-{1-[6-Amino-5-(methoxyimino-methyl)-pyrimidin-4-yl]-pyrrolidin-3-yl}-3-(4-isopropoxy-phenyl)-urea]	455 nM
CO/N=C/c1c(N)ncnc1N1CCC(NC(=O)Nc2ccc(N3CCCCC3)cc2)C1 (stereo not shown) [Number 9, 1-{1-[6-Amino-5-(methoxyimino-methyl)-pyrimidin-4-yl]-pyrrolidin-3-yl}-3-(4-piperidin-1-yl-phenyl)-urea]	764 nM
CO/N=C/c1c(N)ncnc1N1CCC(NC(=O)Nc2ccc(N3CCOCC3)cc2)C1 (stereo not shown) [Number 10, 1-{1-[6-Amino-5-(methoxyimino-methyl)-pyrimidin-4-yl]-pyrrolidin-3-yl}-3-(4-morpholin-4-yl-phenyl)-urea]	569 nM
CO/N=C/c1c(N)ncnc1N1CCC(NC(=O)Nc2ccc(OC3CCC3)nc2)C1 (stereo not shown) [Number 11, 1-{1-[6-Amino-5-(methoxyimino-methyl)-pyrimidin-4-yl]-pyrrolidin-3-yl}-3-(6-cyclobutoxy-pyridin-3-yl)-urea]	398 nM
CO/N=C/c1c(N)ncnc1N1CCC(NC(=O)Nc2ccc(OC(C)C)cc2)CC1 [Number 12, 1-{1-[6-Amino-5-(methoxyimino-methyl)-pyrimidin-4-yl]-piperidin-4-yl}-3-(4-isopropoxy-phenyl)-urea]	672 nM
CO/N=C/c1c(N)ncnc1N1CCC(NC(=O)Nc2ccc(N3CCCCC3)cc2)CC1 [Number 13, 1-{1-[6-Amino-5-(methoxyimino-methyl)-pyrimidin-4-yl]-piperidin-4-yl}-3-(4-piperidin-1-yl-phenyl)-urea]	587 nM
CO/N=C/c1c(N)ncnc1N1CCC(NC(=O)Nc2ccc(N3CCOCC3)cc2)CC1 [Number 14, 1-{1-[6-Amino-5-(methoxyimino-methyl)-pyrimidin-4-yl]-piperidin-4-yl}-3-(4-morpholin-4-yl-phenyl)-urea]	1200 nM
CO/N=C/c1c(N)ncnc1N1CCC(NC(=O)Nc2ccc(OC3CCC3)nc2)CC1 [Number 15, 1-{1-[6-Amino-5-(methoxyimino-methyl)-pyrimidin-4-yl]-piperidin-4-yl}-3-(6-cyclobutoxy-pyridin-3-yl)-urea]	578 nM
CO/N=C/c1c(N)ncnc1N1CCC(NC(=O)Nc2ccc(C3CCCCC3)cc2)C1 (stereo not shown) [Number 17, 1-{1-[6-Amino-5-(methoxyimino-methyl)-pyrimidin-4-yl]-pyrrolidin-3-yl}-3-(4-cyclohexyl-phenyl)-urea]	386 nM
CO/N=C/c1c(N)ncnc1N1CCC(NC(=O)Nc2ccc(Cl)cc2)C1 (stereo not shown) [Number 18, 1-{1-[6-Amino-5-(methoxyimino-methyl)-pyrimidin-4-yl]-pyrrolidin-3-yl}-3-(4-chloro-phenyl)-urea]	735 nM
CO/N=C/c1c(N)ncnc1N1CCC(NC(=O)Nc2ccc(Oc3ccccc3)cc2)C1 (stereo not shown) [Number 19, 1-{1-[6-Amino-5-(methoxyimino-methyl)-pyrimidin-4-yl]-pyrrolidin-3-yl}-3-(4-phenoxy-phenyl)-urea]	371 nM
CO/N=C/c1c(N)ncnc1N1CCC(NC(=O)Nc2ccc(N3CCCC3)cc2)C1 (stereo not shown) [Number 20, 1-{1-[6-Amino-5-(methoxyimino-methyl)-pyrimidin-4-yl]-pyrrolidin-3-yl}-3-(4-pyrrolidin-1-yl-phenyl)-urea]	491 nM
CO/N=C/c1c(N)ncnc1N1CCC(NC(=O)Nc2ccc(OC3CCCC3)nc2)C1 (stereo not shown) [Number 21, 1-{1-[6-Amino-5-(methoxyimino-methyl)-pyrimidin-4-yl]-pyrrolidin-3-yl}-3-(6-cyclopentyloxy-pyridin-3-yl)-urea]	249 nM
CO/N=C/c1c(N)ncnc1N1CCC(NC(=O)Nc2ccc(C3CCCCC3)cc2)CC1 [Number 22, 1-{1-[6-Amino-5-(methoxyimino-methyl)-pyrimidin-4-yl]-piperidin-4-yl}-3-(4-cyclohexyl-phenyl)-urea]	672 nM
CO/N=C/c1c(N)ncnc1N1CCC(NC(=O)Nc2ccc(OC3CCCC3)nc2)CC1 [Number 23, 1-{1-[6-Amino-5-(methoxyimino-methyl)-pyrimidin-4-yl]-piperidin-4-yl}-3-(6-cyclopentyloxy-pyridin-3-yl)-urea]	651 nM
CO/N=C/c1c(N)ncnc1N1CCC(NC(=O)Nc2ccc(Cl)cc2)CC1 [Number 25, 1-{1-[6-Amino-5-(methoxyimino-methyl)-pyrimidin-4-yl]-piperidin-4-yl}-3-(4-chloro-phenyl)-urea]	890 nM
CO/N=C/c1c(N)ncnc1N1CCC(NC(=O)Nc2ccc(Oc3ccccc3)cc2)CC1 [Number 26, 1-{1-[6-Amino-5-(methoxyimino-methyl)-pyrimidin-4-yl]-piperidin-4-yl}-3-(4-phenoxy-phenyl)-urea]	856 nM
CCNC(=O)NCCO/N=C/c1c(N)ncnc1N1CCC(NC(=O)Nc2ccc(C(C)C)cc2)C1 (stereo not shown) [Number 28, 1-[1-(6-Amino-5-{[2-(3-ethyl-ureido)-ethoxyimino]-methyl}-pyrimidin-4-yl)-pyrrolidin-3-yl]-3-(4-isopropyl-phenyl)-urea]	498 nM
CC(C)c1ccc(NC(=O)NC2CCN(c3ncnc(N)c3/C=N/OCC(=O)N3CCOCC3)C2)cc1 (stereo not shown) [Number 29, 1-(1-{6-Amino-5-[(2-morpholin-4-yl-2-oxo-ethoxyimino)-methyl]-pyrimidin-4-yl}-pyrrolidin-3-yl)-3-(4-isopropyl-phenyl)-urea]	856 nM
